# Publication PMC4667731 (Journal of medicinal chemistry, 2015)
# Entries after “also recorded” stand apart in the source; their conditions may differ.
# Columns and labels:
# [1] = Pharmacokinetics in Sprague-Dawley rats; conditions: rat; for detection in serum samples after oral dose of prodrug: p.o. 25 mg/kg
# [2] = Serum stability studies of prodrugs; type: in vitro ADME; conditions: Figure S8
# [3] = Stability under acidic and alkaline conditions; type: physicochemical; conditions: 24 h at 37 °C
# in vitro = conditions: human, Caco-2, […]
# M. tuberculosis H37Rv = M. tuberculosis H37Rv MIC assay under iron-deficient conditions; type: cell-based; conditions: Mycobacterium tuberculosis, pH 6.6
# TB infection = conditions: dosed intraperitoneally; cited from earlier work
# [4] = Estimated pKa of the acyl-sulfonyl linker; type: physicochemical
# Aqueous solubility = type: physicochemical
# [5] = test system: UDP-gluguronosyl transferase (UDPGT); test: Glucuronidation study, rat liver microsomes; conditions: UDPGA
# [6] = test system: UDP-gluguronosyl transferase (UDPGT); test: Glucuronidation study, human liver microsomes; conditions: UDPGA
compound,measurement,setting,value
"2′, 3′ -O-di-Acetyl-5′ -O-[N-(2-hydroxybenzoyl)sulfamoyl]adenosine [Compound 2]",detection in serum samples after oral dose of prodrug,[1],neither of the parent compounds was detected
same,serum stability (acetate cleavage),[2],slowly hydrolyzed
"5′-O-[N-(2-Acetoxybenzoyl)sulfamoyl]-2′, 3′-O-di-acetyladenosine [Compound 3]",detection in serum samples after oral dose of prodrug,[1]; 25 mg/kg,neither of the parent compounds was detected; also recorded: only a negligible amount of 1 could be detected
same,serum stability (acetate cleavage),[2],rapidly cleaved
"CCN(CC)CC.Nc1ncnc2c1ncn2[C@@H]1O[C@H](COS(=O)(=O)NC(=O)c2ccccc2O)[C@@H](O)[C@H]1O [Compound 1, 5′-O-[N-(salicyl)sulfamoyl]adenosine]",degradation,[3]; acidic (pH 1),less than 5%
same,degradation,[3]; alkaline (pH 12),less than 5%
same,Papp A→B,in vitro,1.2 ×10⁻⁶ cm/s
same,MIC,M. tuberculosis H37Rv,0.2 µg/mL
same,efficacy in acute murine TB infection model,TB infection,effective
same,pKa,[4],~3
"CCN(CC)CC.Nc1ncnc2c1ncn2[C@@H]1O[C@H](CNS(=O)(=O)NC(=O)c2ccccc2O)[C@@H](O)[C@H]1O [Compound 4, 5′-N-[N-(2-Hydroxybenzoyl)sulfamoyl]amino-5′ -deoxyadenosine triethylammonium salt]",MIC,M. tuberculosis H37Rv,0.11 µg/mL
same,Cmax,"[1]; female, Sprague-Dawley, in vivo, po, 25 mg/kg",1400 nM
same,pKa,[4],~5
"CCN(CC)CC.Nc1ccc(C(=O)NS(=O)(=O)NC[C@H]2O[C@@H](n3cnc4c(N)ncnc43)[C@H](O)[C@@H]2O)c(O)c1 [Compound 5, 5′-N-[N-(4-Amino-2-hydroxybenzoyl)sulfamoyl]amino-5′-deoxyadenosine]",MIC,M. tuberculosis H37Rv,1.81 µg/mL
same,pKa,[4],~6
"CCN(CC)CC.O=C(NS(=O)(=O)NC[C@H]1O[C@@H](n2cnc3c(NC4CC4)ncnc32)[C@H](O)[C@@H]1O)c1ccccc1O [Compound 6, N^6-Cyclopropyl-5′-deoxy-5′-N-[N-(2-hydroxybenzoyl)sulfamoyl]aminoadenosine triethylammonium salt]",MIC,M. tuberculosis H37Rv,0.06 µg/mL
"CCN(CC)CC.O=C(NS(=O)(=O)NC[C@H]1O[C@@H](n2cnc3c(NC4CC4)nc(-c4ccccc4)nc32)[C@H](O)[C@@H]1O)c1ccccc1O [Compound 7, N^6-Cyclopropyl-5′-deoxy-5′-N-[N-(2-hydroxybenzoyl)sulfamoyl]amino-2-phenyladenosine triethylammonium salt]",MIC,M. tuberculosis H37Rv,4.27 µg/mL
same,aqueous solubility,Aqueous solubility,poor aqueous solubility
"CCN(CC)CC.Nc1ncnc2c1ncn2[C@@H]1O[C@H](CNS(=O)(=O)NC(=O)c2ccccc2O)[C@@H](O)[C@H]1F [Compound 8, 5′-N-[N-(2-Hydroxybenzoyl)sulfamoyl]amino-2′, 5′-dideoxy-2′-fluoroadenosine triethylammonium salt]",MIC,M. tuberculosis H37Rv,0.11 µg/mL
"CCN(CC)CC.Nc1nc(-c2ccccc2)nc2c1ncn2[C@@H]1O[C@H](CNS(=O)(=O)NC(=O)c2ccccc2O)[C@@H](O)[C@H]1F [Compound 9, 2′, 5′-Dideoxy-2′-fluoro-5′-N-[N-(2-hydroxybenzoyl)sulfamoyl]amino-2-phenyladenosine triethylammonium salt]",MIC,M. tuberculosis H37Rv,1 µg/mL
"CCN(CC)CC.Nc1ncnc2c1ncn2[C@@H]1O[C@H](CNS(=O)(=O)NC(=O)c2ccccc2O)C[C@H]1F [Compound 10, 2′, 3′, 5′-Trideoxy-5′-N-[N-(2-hydroxybenzoyl)sulfamoyl]amino-2′-fluoroadenosine triethylammonium salt]",MIC,M. tuberculosis H37Rv,0.43 µg/mL
"COc1c(C)c2c(c(O)c1C/C=C(\C)CCC(=O)O)C(=O)OC2 [MPA, Mycophenolic Acid]",glucuronidated at 60 min,[5],30%
same,glucuronidated at 60 min,[6],85%
